According to patent publication US20200054594A1 (priority 2017, published 2020):

Columns and labels:
rats = assay: Toxic effects / adverse reactions observed during the rat incision pain study; assay type: in vivo, male Wistar rats; settings: single agents, i.v.
Procedure: The rats were randomly divided into the following groups according to the body weight: blank control group (n=8), model group (n=8) and drug-administered group (n=48). The drug-administered group was divided into the following groups: compound 19-0.1 mg/kg group (n=8), compound 19-0.3 mg/kg group (n=8), compound 19-0.03 mg/kg+compound 35-0.1 mg/kg group (n=8), compound 19-0.03 mg/kg+compound 35-0.3 mg/kg group (n=8), compound 19-0.1 mg/kg+compound 35-0.1 mg/kg group (n=8), and compound 19-0.1 mg/kg+compound 35-0.3 mg/kg group (n=8). The model group and drug-administered group were subjected to an incision surgery. During the surgery, the rats were anesthetized with isoflurane. An incision (1 cm long) passing through the skin and fascia was made with a No. 10 surgical blade in the middle of the left hind paw. The skin was sutured with a 3-0 sterile silk surgical suture. The injured site was disinfected with antibiotic ointment and iodophor. The animals were returned to their original place to recover overnight. After 24 hours, the drug was injected through the tail vein, and the blank control group and the model group were administrated with the corresponding solvents. […] The mechanical pain threshold of each group was measured by the Electronic Von Frey 30 minutes after the injection to evaluate the analgesic effect of the drug on the surgical incision pain and the intensity thereof.

incision pain in rats = assay: Incision pain test in rats, mechanical pain threshold by Electronic Von Frey; assay type: in vivo, male Wistar rats

CCO[C@H]1CC[C@H](NCC[C@@]2(c3ccccn3)CCOC3(CCCC3)C2)c2ccccc21 [compound 19, (1S,4S)-4-Ethoxy-N-(2-((R)-9-(pyridin-2-yl)-6-oxaspiro[4.5]decan-9-yl)ethyl)-1,2,3,4-tetrahydronaphthalen-1-amine]
toxic effects (such as slow movement and stiffness of limbs in rats), compound 19 alone versus compound 35 alone (rats): more obvious toxic effects | increase of tenderness threshold compared with the model group (incision pain in rats; compound 19 0.1 mg/kg i.v. alone, 30 minutes after administration): 233.8% | tenderness threshold (incision pain in rats; compound 19 0.1 mg/kg i.v. alone, 30 minutes after administration, model group 11.08 g, blank control 37.68 g): 36.99 g

CNC(=O)NC1CCN(C(=O)[C@@H](CCCCN)NC(=O)[C@@H](CC(C)C)NC(=O)[C@@H](Cc2ccccc2)NC(=O)[C@H](N)Cc2ccccc2)CC1 [compound 35, (R)—N—((R)-6-Amino-1-(4-(3-methylureido)piperidin-1-yl)-1-oxohexan-2-yl)-2-((R)-2-((R)-2-amino-3-phenylpropanamido)-3-phenylpropanamido)-4-methylpentanamide]
increase of tenderness threshold compared with the model group (incision pain in rats; rat, in vivo, iv, 0.3 mg/kg): 102.3% | tenderness threshold (incision pain in rats; rat, in vivo, iv, 0.3 mg/kg): 22.42 g
